Assay results: US20100159021A1, “Small Molecule Ligands of the Integrin RGD Recognition Site and Methods of Use” (priority 2008, published 2010)

Legend:
MDA-MB-231 cells = experiment: RNA microarray of differentially-regulated genes; format: cell-based, human; details: FIG. 9
[1] = test system: human breast cancer (MDA-MB-231) cell line; experiment: anti-proliferative activity in CESCO bellows bottle perfusion model; format: cell-based; details: 144 h, MDA MB 231 cells in vitro, exposure for 6 days with daily refreshment, read-out: anti-proliferative (pro-apoptotic) IC50
Description: FIGS. 8A and 8B depict the anti-proliferative activities of unmodified tetrac, unmodified resveratrol (RV) and the combination thereof against a human breast cancer (MDA-MB-231) cell line in vitro. The cell line is estrogen receptor (ER)-negative. The test system is a CESCO bellows bottle perfusion model in which cancer cells adhere to plastic flakes and are then exposed to continuous, recycled flow of chemotherapeutic agent in an oxygenated environment. Polyphenol (10 μM) or tetrac (0.1 μM) in DMEM buffer, supplemented with fetal bovine serum, are refreshed daily. […] Results shown are means of triplicate experiments.
MDA-MB cells were seeded in perfusion CESCO bellow bottles. Cells were refreshed with 1% FBS containing DMEM after 24 h incubation. Cells were then treated with tetrac (10^−7 M), or resveratrol (0.1 mM) or both. Resveratrol was added daily and tetrac was added every three days. Cells were harvested as indicated dates and counted.

IC50 [1]: 100 nM
Compound: Oc1ccc(C=Cc2cc(O)cc(O)c2)cc1 [resveratrol]
expression of pro-apoptotic genes CASP2 and NLRP1 (NALP1) (MDA-MB-231 cells; 10 μM, 24 h): upregulated
expression of tumor markers FTCD (hepatoma) and leukemogenic FUS gene (MDA-MB-231 cells; 10 μM, 24 h): suppressed
expression of cancer-relevant genes FUS, AAKJ, USP6 (Tre6) (MDA-MB-231 cells): downregulated
